What was measured:
[1] = Superoxide anion scavenging (PMS/NADH method); format: biochemical; details: cell free
Procedure: (§1) The antioxidant activity of Microsan from Microbacterium sp. strain BS-2 and Brevisan from Brevibacillus sp. strain BS-207 in cell free system was measured by its inhibitory activity on the generation of DPPH free radicals, superoxide anions (O^2−), lipid peroxidation and erythrocyte hemolysis. The DPPH free radical scavenging assay was performed using 2,2-diphenyl-1-picrylhydrazyl (DPPH) free radical scavenging method [Ara. N. and Hasan, N. (2009) Res. J. Med. Medical Sci. 4, 107-110]. Different concentrations of Microsan and Brevisan were mixed individually with 150 μl of 160 μM methanolic solution of DPPH and incubated at 35° C. for 30 min in dark. The effective concentration (EC50) was calculated by measuring the absorbance of the samples at 517 nm. The superoxide anion scavenging was measured using phenazine methosulfate-nicotinamide adenine dinucleotide (PMS/NADH) method as previously described [Liu, F., Ooi, V. E. and Chang, S. T. (1997) Life Sci. 60, 763-771]. The lipid peroxidation assay was performed using the previously described method [Zhang, Q., Yu, P., Li, Z., Zhang, H., Xu, Z. and Li, P. (2003) J. Appl. Phycol. 15, 305-310] which is based on measuring the lipid peroxide decomposed product malondialdehyde (MDA). […] Samples were incubated at 37° C. for 30 min and the absorbance was measured at 540 nm. […]

erythrocytes = assay: Erythrocyte hemolysis assay (H2O2); format: cell-based; details: human erythrocytes, H2O2, 37° C., 30 min
Procedure: as §1

[2] = tested on: nitric oxide (NO) in RAW 264.7 macrophages; assay: LPS-stimulated nitric oxide (Griess reaction) in RAW 264.7 macrophages; format: cell-based, mouse; details: 20 μg ml^−1; LPS 100 ng ml^−1 24 h; LPS alone 66.87%
Procedure: After 24 h, 100 μl of culture supernatant was collected and mixed with 100 μl of Griess reagent in a 96-well plate and incubated for 15 min at room temperature. The optical density was spectroscopically measured at 540 nm using TRIAD multimode reader (Dynex Technologies, Inc., Chantilly, Va.). The experiments were run in triplicates and reported as the percentage of NO produced.

TNF-α in RAW 264.7 cells = assay: LPS-induced TNF-α ELISA in RAW 264.7 cells; format: cell-based, mouse; details: 50 μg ml^−1; LPS 100 ng ml^−1 24 h; LPS alone 215.79
Procedure: The effect of Brevisan, Microsan and M-EPS-Au-NP on the release of proinflammatory cytokines, TNF-α and IL-6, was measured using ELISA kits (Biosource International, Camarillo, Calif., USA). In independent experiments, the RAW-264.7 cells were treated with different concentrations (1, 10, 50 and 100 μg ml^−1) of Brevisan, Microsan and M-EPS-Au-NP and then stimulated with 100 ng ml^−1 of LPS. The supernatants were harvested after 24 h and the concentrations of TNF-α and IL-6 was measured using an ELISA kit according to the manufacturer's instructions.

[3] = Critical micelle concentration; format: physicochemical
Procedure: The bacterial strains producing biosurfactants were isolated from the petroleum-contaminated soil sample collected from Mupkal, Nizamabad, Andhra Pradesh, India (latitude 18.90° N and longitude 78.36° E). The soil sample was enriched by placing 1.0 g of soil sample in 100 ml of mineral salts medium supplemented with N-hexadecane (1%, v/v) as a sole carbon source for three weeks. The enriched sample was serially diluted and then plated on the mineral salts agar plates overlaid with N-hexadecane which acted as a sole carbon source. The colonies that appeared on the plates upon incubation at 37° C. for 72 h were purified for 2-3 times on nutrient agar plates. The isolated pure microorganisms were cultured in liquid mineral salts medium at 37° C. for 72 h. The cells were separated by centrifugation and the cell-free supernatant was measured for the reduction in surface tension values by Wilhelmy plate method using a Du-Nouy K100MK2 Processor Tensiometer (Krüss, Hamburg, Germany). The concentration series was generated automatically with a computer-controlled Dosimat (Metrohm AG, Switzerland). […] The critical micelle concentration (CMC) was measured by plotting the concentration of surfactant as a function of surface tension, and the CMC was taken as the point where the slope of the curve abruptly changed. […]

## β-D-glucuronyl-(1-2)-D-mannosyl-(1-4)-D-glucose [Microsan]
[1]
  EC50 superoxide anions (O^2−) scavenging: 24.48 µg/mL
erythrocytes
  EC50 erythrocyte hemolysis inhibition: 139.28 µg/mL
[2]
  LPS-stimulated NO levels after treatment: 20.05%
TNF-α in RAW 264.7 cells
  TNF-α production after treatment: 98.88 µg/mL
[3]
  critical micelle concentration (CMC): 75 mg/L
